Results published in US20020042079A1, “METHODS AND AGENTS FOR MEASURING AND CONTROLLING MULTIDRUG RESISTANCE” (priority 1994, published 2002).
Entries after “also recorded” stand apart in the source; their conditions may differ.

System: CHO cells
Assay: Acridine orange labeling of acidic compartments
Format: cell-based, Chinese Hamster
Conditions: 10 μM tamoxifen, thirty minutes
Experimental: Labeling of Cells with Acridine Orange: To examine intracellular acidic compartments, acridine orange (6 μM in medium from a 10 mM stock in water) was added directly to cells in the Lab-Tek chambers and the cells were incubated for 15 minutes. Cells in the presence of acridine orange were then examined utilizing an excitation at 488 nm and dual emission confocal images were simultaneously recorded using both a 530-30 band pass barrier filter (green fluorescence) and a 605 nm long pass barrier filter (red fluorescence). Optical sections of the fluorescent samples were recorded at 0.5 micron intervals with a 60×oil immersion objective.
CHO cells are often used for transfection studies with Pgp since endogenous levels of the protein are non-existent, or too low to be measured [Debenham et al., Mol. Cell Biol., 2:881-889 (1982)].

`CC/C(=C(\c1ccccc1)c1ccc(OCCN(C)C)cc1)c1ccccc1` [Tamoxifen] was tested, and the “red acridine orange fluorescence after Tamoxifen” value was “substantially reduced the red acridine orange fluorescence; also recorded: loss of red-orange fluorescence from the cytoplasm of the CHO cells”.
